Assay results published in PMC11489133, “Obicetrapib exhibits favorable physiochemical and pharmacokinetic properties compared to previous cholesteryl ester transfer protein inhibitors: An integrated summary of results from non‐human primate studies and clinical trials” (Pharmacology Research & Perspectives, 2024).
Where two headings read alike, the source gives them in different places. Each block holds one compound with its values, some of them ahead of it.

Columns and labels:
[1] = absorption, metabolism and excretion study of a single 10 mg dose of 14C-obicetrapib (NCT02408055, TA‐8995‐07); format: in vivo, humans; conditions: male, human, in vivo
Experimental: Figure 2 illustrates the obicetrapib (TA‐8995) M1 detected above the LLOQ (>1% radioactivity) in human plasma expressed as the percent radioactivity profiled. A study (NCT02408055) was conducted in healthy male participants (n = 6) to assess the absorption, metabolism, and excretion of a single dose of 10 mg of ^14C‐obicetrapib (TA‐8995‐07 CSR, NewAmsterdam Pharma). One of the objectives of the study was to determine the chemical structure of ^14C‐obicetrapib M1 that represent ≥10% of total radioactivity in plasma. The participants received 10 mL ^14C‐obicetrapib oral suspension, containing 10 mg and 100 μCi of ^14C‐obicetrapib in the fasted state. Clinical samples for analysis were selected based upon the levels of radioactivity present as determined by liquid scintillation counting and were stored at below −50°C (nominally −80°C) when not in use. Plasma samples from the participants were sequentially extracted with acetonitrile at five time points. The resulting extracts were concentrated by evaporation and reconstituted in mobile phase HPLC prior to analysis by radio‐HPLC. All samples were analyzed by liquid scintillation counting to evaluate the recovery of radioactivity. The profiles of the radiolabeled components in each sample of plasma were determined by HPLC analysis with off‐line radio‐detection. Selected samples from each matrix were then further analyzed by high‐resolution mass spectrometry to investigate the identity of M1. In plasma, the predominant metabolite component was unchanged obicetrapib (~79% of total drug‐related exposure), and the most abundant plasma M1 were M1 and P9 of which each accounted for ~4% of total exposure (Figure 2). No significant differences in the metabolite profiles were observed across the samples obtained from the six participants (TA‐8995‐07 CSR, NewAmsterdam Pharma).

[2] = cited from earlier work
[3] = set-up: method as in PMID 28847206; conditions: added to high‐intensity statin therapy, compared to placebo; cited from earlier work
[4] = pH 7.4; cited from earlier work
[5] = cited from earlier work; remark: listed apart in the source
[6] = cited from earlier work; remark: listed apart in the source

percent radioactivity profiled in human plasma [1]: approx. 4%
Structure (SMILES): CCC1CC(N(Cc2cc(C(F)(F)F)cc(C(F)(F)F)c2)c2ncc(OCCCC(=O)O)cn2)c2cc(C(F)(F)F)ccc2N1 (stereo not drawn) [M1]

percent radioactivity profiled in human plasma [1]: approx. 4%
Structure (SMILES): O=C(O)COc1cnc(NCc2cc(C(F)(F)F)cc(C(F)(F)F)c2)nc1 [P9]

Structure (SMILES): COc1cc(F)c(C(C)C)cc1-c1ccc(C(F)(F)F)cc1CN1C(=O)O[C@H](c2cc(C(F)(F)F)cc(C(F)(F)F)c2)[C@@H]1C [anacetrapib, Anacetrapib]
increase in plasma levels, fed versus fasted state ([2]; in vivo): 2-8 fold
increase of AUC (0‐∞) by a high‐fat meal compared to a fasting state ([2]; in vivo): 6 fold
increase of C max by a high‐fat meal compared to a fasting state ([2]; in vivo): 8 fold
reduced risk of major adverse coronary events [3]: 9%
cLogDpH7.4 [4]: 9.2
PSA [5]: 39 Å^2
time detected in plasma after the last treatment dose ([6]; 76‐week DEFINE trial): up to 4 years
half‐life ([6]; human, in vivo): up to 80 h
accumulation in adipose tissue ([6]; subcutaneous adipose biopsy measurements, compared to plasma levels): accumulated in adipose tissue at much higher concentrations and for a prolonged period

Structure (SMILES): CCC(CC)CC1(C(=O)Nc2ccccc2SC(=O)C(C)C)CCCCC1 [dalcetrapib, Dalcetrapib]
increase of AUC(0–36) by a high‐fat meal compared to fasting conditions [2]: 1.6 fold
increase of C max by a high‐fat meal compared to fasting conditions [2]: 2.3 fold
cLogDpH7.4 [4]: 7.2
PSA [5]: 46 Å^2
t 1/2 ([6]; once daily doses between 300 and 1200 mg, short‐term investigations): 30 h
accumulation in adipose tissue ([6]; other CETP inhibitors): no accumulation in adipose tissue

Structure (SMILES): Cc1cc(C)c2c(c1)[C@@H](N(Cc1cc(C(F)(F)F)cc(C(F)(F)F)c1)c1nnn(C)n1)CCCN2C[C@H]1CC[C@H](C(=O)O)CC1 [evacetrapib, Evacetrapib]
increase of AUC(τ) by a high‐fat meal compared to fasting conditions [2]: 1.4 fold
increase of C max by a high‐fat meal compared to fasting conditions [2]: 1.5 fold
cLogDpH7.4 [4]: 7.9
PSA [5]: 87 Å^2
accumulation in adipose tissue ([6]; human, in vivo): no accumulation in adipose tissue
t 1/2 ([6]; once daily doses between 10 and 600 mg for up to 15 days): 40 h

Structure (SMILES): CCOC(=O)N1c2ccc(C(F)(F)F)cc2[C@@H](N(Cc2cc(C(F)(F)F)cc(C(F)(F)F)c2)C(=O)OC)C[C@H]1CC [torcetrapib, Torcetrapib]
cLogDpH7.4 [4]: 7.6
PSA [5]: 59 Å^2
accumulation in adipose tissue ([6]; human, in vivo): no accumulation in adipose tissue
t 1/2 ([6]; single ascending dose study): 211 h
